In ChEMBL document CHEMBL1201862, “PubChem BioAssay data set” (2004):
Activity calls are given as the source filed them.

Key:
[1] = biological target: Peroxisome proliferator-activated receptor gamma/Nuclear receptor coactivator 2 (Homo sapiens, UniProt P37231); type: functional;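 also: agonist potency for raising coactivator recruitment to the receptor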
[2] = biological target: Peroxisome proliferator-activated receptor gamma/Nuclear receptor coactivator 1 (Homo sapiens, UniProt P37231); type: functional;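 also: agonist potency as compounds enhance coactivator SRC-1 recruitment to PPARgamma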
[3] = biological target: Peroxisome proliferator-activated receptor gamma/Nuclear receptor coactivator 3 (Homo sapiens, UniProt P37231); type: functional;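 also: agonist potency for raising coactivator recruitment to the receptor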
[4] = HIV-1 Env-mediated cell fusion inhibitors, dose response, CCR5-tropic Env (AID 2279); type: functional
[5] = biological target: T1, High affinity choline transporter 1 (Homo sapiens, UniProt Q9GZV3); assay: CHT inhibitors, dose response, cell-based, 5-point CRC, membrane potential dye (AID 504840); type: functional
T1 sequence (Q9GZV3 whole entry): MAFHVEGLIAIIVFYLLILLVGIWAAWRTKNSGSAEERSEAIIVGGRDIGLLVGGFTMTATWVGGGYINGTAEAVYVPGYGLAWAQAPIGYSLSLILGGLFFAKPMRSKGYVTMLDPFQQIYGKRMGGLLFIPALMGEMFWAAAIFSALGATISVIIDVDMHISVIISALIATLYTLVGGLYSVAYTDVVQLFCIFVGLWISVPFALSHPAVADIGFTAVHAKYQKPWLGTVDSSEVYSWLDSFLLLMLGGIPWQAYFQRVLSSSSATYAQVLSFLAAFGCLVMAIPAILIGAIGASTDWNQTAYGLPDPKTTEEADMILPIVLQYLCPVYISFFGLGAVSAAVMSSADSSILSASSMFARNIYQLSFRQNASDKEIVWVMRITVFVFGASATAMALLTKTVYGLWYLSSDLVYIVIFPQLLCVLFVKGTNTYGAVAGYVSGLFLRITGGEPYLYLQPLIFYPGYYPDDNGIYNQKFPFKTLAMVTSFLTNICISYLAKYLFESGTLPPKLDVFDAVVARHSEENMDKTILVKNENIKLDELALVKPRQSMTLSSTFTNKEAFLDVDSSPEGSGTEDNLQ

[6] = biological target: T1, High affinity choline transporter 1; assay: CHT inhibitors, dose response, cell-based, 10-point CRC, membrane potential dye (AID 588401); type: functional;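 also: membrane potential dye fluorescence of choline-evoked depolarization via CHT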
NS3 = NS3 (Hepatitis C virus, UniProt A3EZJ3); assay: PubChem AID 2173; parameters: species or system Hepacivirus hominis
[7] = enhancers of respiration in Yfh1-depleted yeast, dose response, Friedreich's ataxia, plus single-dose screen (AID 1465); type: functional;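 also: yeast depleted of Yfh1p frataxin homolog grown on glycerol needing respiration; WST-1 tetrazolium dye reduction as measure of cellular dehydrogenase metabolic activity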
[8] = biological target: Induced myeloid leukemia cell differentiation protein Mcl-1 (Homo sapiens, UniProt Q07820); type: functional
[9] = biological target: T2, Mannose-6-phosphate isomerase (Homo sapiens, UniProt P34949); assay: human PMI inhibitors, high substrate, primary screen, biochemical, fluorescence intensity, high mannose 6-phosphate (AID 1220)
T2 sequence (P34949 whole entry): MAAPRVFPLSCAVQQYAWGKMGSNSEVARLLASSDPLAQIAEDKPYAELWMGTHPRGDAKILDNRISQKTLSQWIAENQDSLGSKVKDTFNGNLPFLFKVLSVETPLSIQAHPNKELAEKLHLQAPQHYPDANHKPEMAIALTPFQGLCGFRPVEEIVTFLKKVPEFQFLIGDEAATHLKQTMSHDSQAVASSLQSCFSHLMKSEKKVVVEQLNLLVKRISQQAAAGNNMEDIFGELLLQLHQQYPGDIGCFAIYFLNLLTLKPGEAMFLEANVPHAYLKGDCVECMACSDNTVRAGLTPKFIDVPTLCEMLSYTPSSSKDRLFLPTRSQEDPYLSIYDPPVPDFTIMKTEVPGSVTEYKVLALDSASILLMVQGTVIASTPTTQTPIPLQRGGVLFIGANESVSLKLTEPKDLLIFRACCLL

[10] = THP-1 cell cytotoxicity, dose response, cytotoxicity control for Vif-APOBEC3G degradation inhibitor project, THP-1 cells (AID 1117359); type: functional; conditions: Human immunodeficiency virus 1, THP-1

Induced myeloid leukemia cell differentiation protein Mcl-1, sequence (Q07820 whole entry): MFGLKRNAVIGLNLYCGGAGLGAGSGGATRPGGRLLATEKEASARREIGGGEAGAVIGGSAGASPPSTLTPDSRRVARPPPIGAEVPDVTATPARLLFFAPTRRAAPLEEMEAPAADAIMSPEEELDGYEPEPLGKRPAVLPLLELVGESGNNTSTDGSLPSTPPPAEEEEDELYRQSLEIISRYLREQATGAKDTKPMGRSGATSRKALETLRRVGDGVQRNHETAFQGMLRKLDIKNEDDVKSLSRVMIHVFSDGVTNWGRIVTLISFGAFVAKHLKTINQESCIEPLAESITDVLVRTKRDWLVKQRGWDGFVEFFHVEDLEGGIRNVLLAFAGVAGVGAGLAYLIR
NS3, sequence (A3EZJ3 whole entry): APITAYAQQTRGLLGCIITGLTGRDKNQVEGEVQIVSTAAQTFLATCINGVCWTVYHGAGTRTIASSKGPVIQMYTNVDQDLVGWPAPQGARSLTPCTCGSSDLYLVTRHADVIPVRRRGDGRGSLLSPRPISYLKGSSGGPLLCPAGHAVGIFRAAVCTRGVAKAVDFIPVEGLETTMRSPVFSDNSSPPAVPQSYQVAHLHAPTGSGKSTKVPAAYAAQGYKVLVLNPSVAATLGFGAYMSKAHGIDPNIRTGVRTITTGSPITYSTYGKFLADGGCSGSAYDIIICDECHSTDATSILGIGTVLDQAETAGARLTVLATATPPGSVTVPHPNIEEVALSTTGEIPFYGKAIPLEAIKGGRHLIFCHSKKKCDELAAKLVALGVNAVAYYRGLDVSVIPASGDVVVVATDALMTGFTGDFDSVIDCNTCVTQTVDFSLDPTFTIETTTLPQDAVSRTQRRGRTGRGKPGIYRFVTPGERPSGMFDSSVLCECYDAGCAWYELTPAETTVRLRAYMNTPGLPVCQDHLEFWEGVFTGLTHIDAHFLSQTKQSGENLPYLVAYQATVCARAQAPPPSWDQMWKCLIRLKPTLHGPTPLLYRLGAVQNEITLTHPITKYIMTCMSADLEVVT
Peroxisome proliferator-activated receptor gamma/Nuclear receptor coactivator 2, sequence (P37231 whole entry): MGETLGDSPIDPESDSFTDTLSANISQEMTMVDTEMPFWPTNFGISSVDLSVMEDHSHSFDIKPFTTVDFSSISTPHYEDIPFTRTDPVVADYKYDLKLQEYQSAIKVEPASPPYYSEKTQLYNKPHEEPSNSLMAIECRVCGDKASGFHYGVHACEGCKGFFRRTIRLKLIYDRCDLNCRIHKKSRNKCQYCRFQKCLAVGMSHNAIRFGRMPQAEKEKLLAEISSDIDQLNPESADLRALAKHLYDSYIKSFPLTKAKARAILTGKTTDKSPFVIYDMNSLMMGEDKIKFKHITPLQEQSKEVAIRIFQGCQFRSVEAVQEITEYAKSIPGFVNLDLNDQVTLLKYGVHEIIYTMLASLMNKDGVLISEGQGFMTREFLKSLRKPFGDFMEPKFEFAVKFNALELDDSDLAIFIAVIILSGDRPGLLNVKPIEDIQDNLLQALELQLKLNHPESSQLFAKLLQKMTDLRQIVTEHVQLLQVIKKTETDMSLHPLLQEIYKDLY
Peroxisome proliferator-activated receptor gamma/Nuclear receptor coactivator 2, sequence (Q15596 whole entry, further chain): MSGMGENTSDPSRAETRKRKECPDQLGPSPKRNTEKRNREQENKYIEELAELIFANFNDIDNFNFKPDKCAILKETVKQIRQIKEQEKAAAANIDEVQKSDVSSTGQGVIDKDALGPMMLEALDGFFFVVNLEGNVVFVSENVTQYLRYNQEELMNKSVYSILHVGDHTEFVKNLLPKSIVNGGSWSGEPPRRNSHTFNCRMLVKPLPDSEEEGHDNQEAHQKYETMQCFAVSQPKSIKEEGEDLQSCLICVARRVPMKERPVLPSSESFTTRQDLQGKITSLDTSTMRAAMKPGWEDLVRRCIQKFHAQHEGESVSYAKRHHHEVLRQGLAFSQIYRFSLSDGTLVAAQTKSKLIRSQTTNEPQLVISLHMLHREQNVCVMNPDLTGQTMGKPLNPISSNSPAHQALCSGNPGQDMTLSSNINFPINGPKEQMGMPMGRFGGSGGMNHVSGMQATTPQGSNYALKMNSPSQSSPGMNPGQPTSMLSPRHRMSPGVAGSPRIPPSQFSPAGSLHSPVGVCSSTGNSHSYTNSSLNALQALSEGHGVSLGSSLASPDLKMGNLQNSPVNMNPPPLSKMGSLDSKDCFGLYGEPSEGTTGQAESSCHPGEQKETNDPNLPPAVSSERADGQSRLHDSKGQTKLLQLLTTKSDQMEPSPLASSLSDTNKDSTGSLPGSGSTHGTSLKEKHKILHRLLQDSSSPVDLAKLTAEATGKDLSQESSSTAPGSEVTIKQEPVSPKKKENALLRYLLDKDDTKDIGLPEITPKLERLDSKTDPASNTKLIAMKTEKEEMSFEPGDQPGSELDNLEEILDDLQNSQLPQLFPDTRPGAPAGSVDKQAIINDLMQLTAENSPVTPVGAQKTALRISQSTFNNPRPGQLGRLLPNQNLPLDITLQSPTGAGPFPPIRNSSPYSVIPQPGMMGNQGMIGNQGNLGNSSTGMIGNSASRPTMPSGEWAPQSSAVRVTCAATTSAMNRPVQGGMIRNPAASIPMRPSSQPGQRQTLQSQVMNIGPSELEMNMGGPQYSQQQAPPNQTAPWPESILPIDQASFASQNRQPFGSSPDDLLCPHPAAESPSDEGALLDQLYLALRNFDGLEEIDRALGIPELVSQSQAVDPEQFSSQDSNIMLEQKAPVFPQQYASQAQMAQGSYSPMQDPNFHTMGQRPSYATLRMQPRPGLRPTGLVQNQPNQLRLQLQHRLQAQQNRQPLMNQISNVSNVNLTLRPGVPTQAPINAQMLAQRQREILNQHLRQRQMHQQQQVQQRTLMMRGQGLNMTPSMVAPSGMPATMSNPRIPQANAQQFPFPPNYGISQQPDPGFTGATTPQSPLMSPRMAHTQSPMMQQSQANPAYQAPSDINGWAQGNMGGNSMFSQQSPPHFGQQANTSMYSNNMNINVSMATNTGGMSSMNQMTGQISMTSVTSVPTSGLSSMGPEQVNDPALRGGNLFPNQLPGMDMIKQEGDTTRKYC
Peroxisome proliferator-activated receptor gamma/Nuclear receptor coactivator 3, sequence (P37231 whole entry, the tested form may be a part): as the sequence (P37231 whole entry) above
Peroxisome proliferator-activated receptor gamma/Nuclear receptor coactivator 3, sequence (Q9Y6Q9 whole entry, further chain, the tested form may be a part): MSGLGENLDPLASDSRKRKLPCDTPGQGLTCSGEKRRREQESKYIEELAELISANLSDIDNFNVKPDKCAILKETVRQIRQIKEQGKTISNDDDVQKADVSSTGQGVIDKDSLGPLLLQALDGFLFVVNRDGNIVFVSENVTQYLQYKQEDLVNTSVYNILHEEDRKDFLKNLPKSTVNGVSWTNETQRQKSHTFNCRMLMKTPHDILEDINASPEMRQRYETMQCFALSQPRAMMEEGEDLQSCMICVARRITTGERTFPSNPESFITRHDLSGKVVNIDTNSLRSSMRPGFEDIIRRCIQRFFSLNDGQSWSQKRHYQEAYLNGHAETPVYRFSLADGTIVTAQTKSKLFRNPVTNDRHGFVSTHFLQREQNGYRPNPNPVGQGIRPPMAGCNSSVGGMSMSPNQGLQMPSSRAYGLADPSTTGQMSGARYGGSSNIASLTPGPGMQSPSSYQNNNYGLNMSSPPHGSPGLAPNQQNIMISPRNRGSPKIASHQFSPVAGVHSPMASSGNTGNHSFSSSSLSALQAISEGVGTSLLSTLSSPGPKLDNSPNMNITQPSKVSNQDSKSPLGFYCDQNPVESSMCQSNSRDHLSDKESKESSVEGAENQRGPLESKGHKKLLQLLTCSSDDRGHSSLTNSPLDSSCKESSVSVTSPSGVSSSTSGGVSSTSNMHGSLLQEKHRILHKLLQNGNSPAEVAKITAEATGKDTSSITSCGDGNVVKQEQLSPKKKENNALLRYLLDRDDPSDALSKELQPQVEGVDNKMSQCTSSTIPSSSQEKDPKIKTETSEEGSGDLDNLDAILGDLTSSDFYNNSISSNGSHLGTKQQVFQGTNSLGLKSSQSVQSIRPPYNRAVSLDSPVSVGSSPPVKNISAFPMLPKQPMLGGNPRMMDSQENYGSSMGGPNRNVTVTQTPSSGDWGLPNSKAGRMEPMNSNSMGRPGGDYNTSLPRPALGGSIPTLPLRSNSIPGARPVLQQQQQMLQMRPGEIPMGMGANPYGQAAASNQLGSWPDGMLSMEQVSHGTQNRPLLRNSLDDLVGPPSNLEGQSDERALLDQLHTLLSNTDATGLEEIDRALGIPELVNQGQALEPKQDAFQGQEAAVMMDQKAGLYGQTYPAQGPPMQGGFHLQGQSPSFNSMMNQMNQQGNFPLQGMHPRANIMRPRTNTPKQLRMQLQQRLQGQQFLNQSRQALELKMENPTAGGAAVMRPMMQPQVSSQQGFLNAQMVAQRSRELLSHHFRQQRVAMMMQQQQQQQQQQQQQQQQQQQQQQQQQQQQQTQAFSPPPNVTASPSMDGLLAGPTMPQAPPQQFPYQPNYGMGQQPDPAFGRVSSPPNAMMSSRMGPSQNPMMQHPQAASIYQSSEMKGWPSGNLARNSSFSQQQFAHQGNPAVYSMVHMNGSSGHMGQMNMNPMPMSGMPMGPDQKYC

Which EC50 [1] does the source give for `O=C(NC(=S)Nc1ccccc1)c1ccc(Br)o1` here?
The EC50 was 16 µM (not active).

What about the EC50 [2] of the same compound?
Its EC50 is 17.6 µM (not active).

And the EC50 [3]?
Its EC50 is 19.9 µM (not active).

Which IC50 [4] does the source give for `CCS(=O)(=O)C1=NSC2=NC(=O)/C(=C\c3ccc(OS(=O)(=O)c4ccccc4)cc3)C(=N)N21` here?
The IC50 was 36.5 µM (active).

What about the IC50 [5] of the same compound?
Its IC50 is 5.22 µM (active).

And the IC50 [6]?
The IC50 was 8.91 µM (active).

With `CCN(CC)S(=O)(=O)c1cccc(C(=O)N/N=C/c2ccc(O)c(O)c2O)c1` as the compound, how does the IC50 (NS3) read?
Its IC50 is 5.31 µM (active).

What about the EC50 [7] of the same compound?
The EC50 was > 100 µM (active).

And the IC50 [8]?
Its IC50 is 7.33 µM (active).

And the IC50 [9]?
Its IC50 is 5.36 µM (active).

And the CC50 [10]?
The CC50 was > 40 µM (active).
